Experimental data published in patent publication US20090285862A1, “METHODS AND COMPOSITION FOR TREATMENT OF INFLAMMATORY PAIN” (priority 2006, published 2009).
Marks after values point to notes of the source that are not given here.

Columns and labels:
male Wistar rats = assay: open field activity monitor, testing for sedation; assay type: in vivo, rat; settings: for open field activity monitor, mean: male, Wistar, rat, in vivo, ip, 20 min
Procedure: (§1) Experiments were performed on male Wistar rats (wt 150-220 g). Three series of experiments were performed in an observer blinded fashion with saline (negative) controls and GABAPentin (positive) controls. The investigations were in three stages: • 1. a range of doses of aprepitant (an example of a NK antagonist) given alone and in combination with flupiritine (an example of an inhibitor of neuronal excitation) were tested for sedating effects using the open field activity monitor. In this way it was determined which doses of drug and drug combinations could be used to test for analgesic effects without causing sedation; • 2. a range of doses of aprepitant given alone and in combination with flupirtine were tested for the ability to reverse the allodynia effect causes by intraplantar injection of carrageenan; • 3. a range of doses of aprepitant given alone and in combination with flupirtine were tested for the ability to reverse the allodynia and hyperalgesia caused by streptozotocin-induced diabetic neuropathy.
Individual rats (several rats per treatment group) were placed in an open field activity monitor in which the movement of the rat could be monitored remotely by the frequency and number of interruption of infrared beams directed across the box in a grid. The activity in the monitor was measured for periods of 20 minutes in each rat. This was performed in groups of rats that received (1) control injection of saline, (2) GABAPentin 50 mg/kg as the maximum dose of the drug found previously not to be sedating (drug positive control) administered intraperitoneally, or (3) after pharmacological interventions that involve the administration of aprepitant and flupiritine given at a range of doses alone and in combination. If a rat was sedated by a drug or drug combination, the movements recorded were less. Since rates became habituated to the open field monitor, only one experiment was performed on each rat with this test.
Rats are observed in a commercially available open-field arena in which locomotor and exploratory activity can be monitored in darkness by the breaking of infrared beams arranged in a grid pattern over the entire area (MedAssociates Inc. St. Albans, Vt., USA 05478). The observations are started 5 minutes after the intraperitoneal administration of drugs. The total time of observations in all cases is 20 minutes. In order to avoid habituation to the activity monitor, animals are used once in this test for sedation. Rest time is defined as the time spent with no new infrared beam interruptions.

[1] = system: carrageenan-induced allodynia; assay: carrageenan paw inflammation, reversal of allodynia assessed with Von Frey hairs; assay type: in vivo, rat; settings: rats, IP, non-sedating doses, drug administered alone
Procedure: as §1
Inflammation involves the release of a number of substances into the tissues following injury. These substances including prostaglandins, bradykinin, inflammatory peptides such as substance P and calcitonin gene related peptide and also a number of cytokines. […] Nociceptive thresholds were measured in groups of rats prior to the intraplantar injection. […]

| SMILES | open field activity monitor, mean (male Wistar rats; 6.25 mg/kg) | open field activity monitor, mean (male Wistar rats; 12.5 mg/kg) | open field activity monitor, mean (male Wistar rats; 25 mg/kg) | open field activity monitor, mean (male Wistar rats; 50 mg/kg) | open field activity monitor, mean (male Wistar rats; 100 mg/kg) | dose causing no sedating effects (upper limit) (male Wistar rats; rats, drug given alone) | antinociception, reversal of carrageenan-induced allodynia (Von Frey) [1] | maximum dose found previously not to be sedating (male Wistar rats; rats, intraperitoneally, found previously) |
| --- | --- | --- | --- | --- | --- | --- | --- | --- |
| C[C@@H](O[C@H]1OCCN(Cc2n[nH]c(=O)[nH]2)[C@H]1c1ccc(F)cc1)c1cc(C(F)(F)F)cc(C(F)(F)F)c1 [aprepitant] | 869.0 | 915.0* | 964.6* | 976.6* | 1058.2* | ≤ 6.25 mg/kg | neither flupirtine or aprepitant given at non-sedating doses caused any antinociception |  |
| NCC1(CC(=O)O)CCCCC1 [GABAPentin] |  |  |  |  |  |  |  | 50 mg/kg |
